Counter-ions that a name gives are not always drawn. Like-named read-outs stand apart in the source and are kept apart here.
Tests used:
Format in all cases: in vivo
mice = experiment: Rotating rod test; conditions: for ED50: Mus musculus, po, read-out: ED50 (dose which reduces the holding time to 50%)
Protocol: In the rotating rod test, the ability of mice to achieve a coordinated, motoric performance is tested. After the peroral administration of the test substance, mice are placed on a horizontal, slowly rotating rod and the time until the mice fall off the rod is measured.

rats [1] = experiment: Cataleptic action in rats (homolateral extremities crossed position); conditions: rats, intraperitoneal
Protocol: (§1) The following products were investigated:
(§2) The amimals are considered to be cataleptic when the homolateral extremities remain for at least 10 seconds in the crossed position. The number of cataleptic animals is noted every 30 minutes for 6 hours.

[2] = as above; conditions: rat, in vivo, ip
Protocol: as §1, §2

rats [3] = experiment: Pole climbing test; conditions: for Quotient ED10 (Blocking of the unconditioned reaction)/ED50 (Blocking of the conditioned reaction): higher = greater selectivity of neuroleptic action
Protocol: This test gives information about behaviour reactions of rats. Rats are trained to avoid, by climbing up a vertical pole in the test chamber, an electrical impulse (unconditioned impulse) released via the wire-latticed floor some seconds after an acoustic signal (conditioned impulse).
The blocking of the conditioned reaction is determined by the parameter ED50 (mg/kg p.o.); the blocking of the unconditioned reaction is determined by the parameter ED10 (mg/kg p.o.).
The parameter ED50 (blocking of the conditioned reaction) gives a measure of the neuroleptic activity strength of the test substance. The quotient ED10 (blocking of the unconditioned reaction)/ED50 (blocking of the conditioned reaction) gives a measure of the quality of action of the test substance, in that with increasing quotient a greater selectivity of the neuroleptic action (slighter neurotoxic side-effects) is present.

homovanillic acid (HVA) = experiment: Determination of homovanillic acid (turnover of dopamine in the basal ganglia); conditions: rats; for Increase of HVA: 2 hours, untreated rats fixed at 100%
Protocol: Rats are injected with the derivative to be tested 2 hours before they are killed.
Homovanillic acid is extracted from the supernatant of the brain homogenate into butyl acetate and later into an aqueous solution and oxidised with potassium ferricyanide to a fluorescent dimer. From the increased concentration of homovanillic acid (HVA) it can be concluded that the derivative under investigation acts like chlorpromazine, i.e. it increases the turnover of dopamine in the basal ganglia. The homovanillic acid titre in untreated rats is arbitrarily fixed at 100%.

Structure (SMILES) | ED50 (mice; mice, peroral) | action in rotating rod test (in words) (mice; mice, peroral) | cataleptic action in comparison to chlorpromazine (in words) (rats [1]) | TD50 at 6 h [2] | ED50 (rats [3]; Rattus norvegicus, po, read-out: ED50 (Blocking of the conditioned reaction)) | neuroleptic action and quality (selectivity) compared with chlorpromazine (in words) (rats [3]; p.o.) | Quotient ED10 (Blocking of the unconditioned reaction)/ED50 (Blocking of the conditioned reaction) (rats [3]; p.o.) | Increase of HVA (homovanillic acid (HVA); 50 mg/kg p.o.) | activity in HVA test compared with chlorpromazine (in words) (homovanillic acid (HVA)) | TD50 at 6 h ([2]; rats, intraperitoneal, noted every 30 minutes for 6 hours, read-out: ED50 (dose at which 50% of the animals show catalepsy)) | ED50 (mice) | Increase of HVA (homovanillic acid (HVA); 20 mg/kg p.o.)
O=C1OCCN1CCN1CCN(C2Cc3cc(Cl)ccc3Sc3ccccc32)CC1 (stereo not shown) [Product A, 3-[2-[4-(2-chloro-10,11-dihydro-dibenzo[b,f]thiepin-10-yl)-1-piperazinyl]-ethyl]-2-oxozolidinone maleate] | 7.9 mg/kg | strong action | no cataleptic action or only a slight cataleptic action | > 100 mg/kg | 10 mg/kg | strong neuroleptic action but also a quality (selectivity) of the neuroleptic action, both of which somewhat exceed that of chlorpromazine | 4.2 | 340% | almost equalizes that of chloropromazine | – | – | –
Cc1ccc2c(c1)CC(N1CCN(CCN3CCOC3=O)CC1)c1ccccc1S2.O=C(O)/C=C\C(=O)O (stereo not shown) [Product B, 3-[2-[4-(10,11-dihydro-2-methyl-dibenzo[b,f]thiepin-10-yl)-1-piperazinyl]-ethyl]-2-oxazolidinone maleate] | – | – | no cataleptic action or only a slight cataleptic action | – | – | – | – | 255% | almost equalizes that of chloropromazine | 70 mg/kg | – | –
CN(C)CCCN1c2ccccc2Sc2ccc(Cl)cc21 [Chlorpromazine, reference compound] | – | – | – | – | – | – | 3.5 | – | – | – | 5 mg/kg | 321%

Reference: patent publication US4006144A, “10,11-Dihydro-dibenzo(b,f)thiepin derivatives” (Hoffmann-La Roche Inc., priority 1972, dated 1977)
